Results published in US20080152715A1, “Method for preparing nanoparticles comprising vitamin K and poly-isopropyl-butyl methacrylate-acrylic acid copolymer with supercritical fluid using molecular association theory” (Seoul National Universtiy Industry Foundation, priority 2006, published 2008).

Experiment: Particle size measurement using a Particle Size Analyzer
Assay type: physicochemical
Settings: pretreated vitamin K, before the supercritical process
Procedure: The pretreated vitamin K has a particle size of 50 to 100 microns. In Examples, the particle sizes of vitamin K nanoparticles prepared by the following conditions were measured using a Particle Size Analyzer. Here, spherical fine particles having a particle size of 50 to 300 nm can be obtained according to the presence or absence of a poly-isopropyl-butyl methacrylate-acrylic acid copolymer as a biodegradable polymer, and the operating conditions.
As shown in the following Table 1, the present Examples represent the operating conditions of the reactor in the step of formation of a spherical structure. The temperature and the pressure of the reactor must be each above 304.2 K and 73.8 bar, which correspond to the critical temperature and the critical pressure of carbon dioxide, respectively. The operating parameters in the reactor are the temperature and the pressure in reactor, the amount of carbon dioxide as a supercritical fluid, and the amount of solution prepared in the preparation step. In Example 1, the solution contains vitamin K of 0.0016 wt % alone without a biodegradable polymer. In Example 2 to 8, the solution contains both of vitamin K of 0.0016 wt % and the poly-isopropyl-butyl methacrylate-acrylic acid copolymer of 0.0014 wt % as a biodegradable polymer. […] In Examples 1 and 3, the change was measured at 313K and 323K by adjusting the reactor temperature. […]

## vitamin K [pretreated vitamin K]
  particle size: 50 to 100 microns
